Experimental findings from patent publication US7138408B2, “HIV integrase inhibitors, pharmaceutical compositions and methods for their use” (priority 2003, dated 2006) are described below.

The experiment deals with T1, HIV-1 integrase (SF1) (Human immunodeficiency virus type 1 group M subtype B, UniProt P04585, C1203S/C1427S/F1286D/F1332K/W1278D).
T1 construct: 6-histidine tag with thrombin cleavage site (N, cleaved yes); made in house; host or cells: E. coli BL21 (DE3)
Nature of the experiment: Integrase strand-transfer scintillation proximity assay. Format: biochemical. The source says: Oligonucleotides: Oligonucleotide #1-5′-(biotin)[…]-3′ (SEQ ID NO: 1) and oligonucleotide #2-5′-[…]-3′ (SEQ ID NO: 2), were synthesized by TriLink BioTechnologies, Inc. (San Diego, Calif.). The annealed product represents preprocessed viral ds-DNA derived from the LTR U5 sequence of the viral genome. A ds-DNA control to test for non-specific interactions was made using a 3′ di-deoxy derivative of oligonucleotide #1 annealed to oligonucleotide #2. The CA overhang at the 5′ end of the non-biotinylated strand of the ds-DNA was created artificially by using a complimentary DNA oligonucleotide shortened by 2 base pairs. This configuration eliminates the requisite 3′ processing step of the integrase enzyme prior to the strand-transfer mechanism.
Host ds-DNA was prepared as an unlabeled and [^3H]-thymidine labeled product from annealed oligonucleotide #3-5-[…]-3′ (SEQ ID NO: 3), and oligonucleotide #4-5′-[…]-3′ (SEQ ID NO: 4), both synthesized by TriLink BioTechnologies, Inc. (San Diego, Calif.). The annealed product had overhanging 3′ ends of poly(dA). Host DNA was custom radiolabeled by PerkinElmer Life Sciences Inc. (Boston, Mass.) using an enzymatic method with a 12/1 ratio of [methyl-^3H]dTTP/cold ds-DNA to yield 5′-blunt end ds-DNA with a specific activity of>900 Ci/mmol. The radiolabeled product was purified using a NENSORB cartridge and stored in stabilized aqueous solution (PerkinElmer). The final radiolabeled product had six [^3H]-thymidine nucleotides at both 5′ ends of the host ds-DNA.
Reagents: Streptavidin-coated polyvinyltoluene (PVT) SPA beads were purchased from Amersham Pharmacia (Piscataway, N.J.). Cesium chloride was purchased from Shelton Scientific, Inc. (Shelton, Conn.). White polystyrene, flat bottom, non-binding surface 384-well plates were purchased from Corning. All other buffer components were purchased from Sigma (St. Louis, Mo.) unless otherwise indicated.
Enzyme Construction: Full-length HIV-1 integrase (SF1) sequence (amino acids 1–288) (SEQ ID NO: 5) was constructed in a pET 15b vector (Novagen, Madison, Wis.) with mutations outlined by Chen et al. (Chen, C-H. J. et al., PNAS 97: 8233–8238 (2000)) that facilitate solubility of the enzyme and decrease oxidation. The vector contained a T7 promoter, a 6-histidine tag at the amino terminus, and a thrombin cleavage site. Mutations C56S, W131D, F139D, F185K, and C280S were introduced using a QuickChange kit (Stratagene, San Diego, Calif.). The construct was confirmed through DNA sequencing.
Enzyme Purification: The penta-mutant was expressed in E. coli BL21 (DE3) cells and induced with 1 mM isopropyl-1 thio-β-D-galactopyranoside (IPTG) when cells reached an optical density between 0.8–1.0 at 600 nm. Cells were lysed in 20 mM HEPES (pH 7.5), 1.5 M NaCl, 5 mM imidazole, and 2 mM 2-mercaptoethanol. The enzyme was purified following standard methods for histidine tagged proteins (Jenkins, T. M. et al., Journal of Biological Chemistry 271: 7712–7718 (1996)). Specifically, cell lysate was passed over a Ni-Nta column (Qiagen, Chatsworth, Calif.) with the 6-His tagged integrase protein eluted by adding 250 mM imidazole. A G-25 Sepharose® column (Amersham Pharmacia, Piscataway, N.J.) was used to exchange the buffer prior to thrombin cleavage of the integrase protein and subsequent removal of thrombin using a benzamidine-Sepharose® 6B column. The cleaved 6-His tag was separated from the integrase using a second Ni-Nta column. The integrase was further purified with a heparin-Sepharose® column and a gradient of NaCl (0.4 to 1 M) in 20 mM HEPES (pH 7.5), 400 mM NaCl, and 1 mM DTT buffer. The purified protein was dialyzed against 20 mM HEPES (pH 7.5), 800 mM NaCl, and 1 mM DTT and concentrated by stirred cell ultrafiltration (Millipore, Bedford, Mass.) or Ultra-free spin concentrators (Millipore, Bedford, Mass.) when required. […]
For orientation: In a scintillation proximity assay essentially only radioactivity close to the scintillant gives light.

`O=C(NO)c1cc2c3ccccc3n(Cc3ccc(F)cc3)c2cn1` [Compound 1, 9-(4-Fluorobenzyl)-N-hydroxy-9H-β-carboline-3-carboxamide] showed a half-maximal inhibitory concentration (IC50) of 234 nM.
The same measure for `O=C(NO)c1cc2c3ccccc3n(Cc3c(F)ccc(Cl)c3F)c2cn1` [Compound 7, 9-(3-Chloro-2,6-difluorobenzyl)-N-hydroxy-9H-β-carboline-3-carboxamide]: 1390 nM; for `O=C(NO)c1cc2c3ccccc3n(Cc3ccc(F)cc3F)c2cn1` [Compound 6, 9-(2,4-Difluorobenzyl)-N-hydroxy-9H-β-carboline-3-carboxamide]: 463 nM; for `O=C(NO)c1cc2c3ccccc3n(Cc3ccccc3)c2cn1` [Compound 4, 9-Benzyl-N-hydroxy-9H-β-carboline-3-carboxamide]: 281 nM.
The same measure for `O=C(NO)c1cc2c3ccccc3n(Cc3ccc(Cl)s3)c2cn1` [Compound 2, 9-[(5-Chlorothien-2-yl)methyl]-N-hydroxy-9H-β-carboline-3-carboxamide]: 494 nM.
The same measure for `O=C(NO)c1cc2c3ccccc3n(Cc3cccc(Cl)c3F)c2cn1` [Compound 3, 9-(3-Chloro-2-fluorobenzyl)-N-hydroxy-9H-β-carboline-3-carboxamide]: 400 nM.
On to `CN(O)C(=O)c1cc2c3ccccc3n(Cc3ccc(F)cc3)c2cn1` [Compound 13, 9-(4-Fluorobenzyl)-N-hydroxy-N-methyl-9H-β-carboline-3-carboxamide], for which half-maximal inhibition (IC50) required 699 nM.
In the case of `Nc1ccc2c(c1)c1cc(C(=O)NO)ncc1n2Cc1cccc(Cl)c1` [Compound 8, 6-Amino-9-(3-chlorobenzyl)-N-hydroxy-9H-β-carboline-3-carboxamide], 713 nM corresponded to half-maximal inhibition (IC50).

The IC50 is the concentration needed to halve the response being measured. Higher therefore signals lower potency.
